Experiments:
[1] = target: cGMP-specific 3',5'-cyclic phosphodiesterase (Homo sapiens, UniProt O76074); test: The maximum final concentration of the compound was 10 μM. The plate was incubated at 30° C. for 1 h, and 20 μL of 70 μM EDTA was then added to stop the reaction. 26 μL of solution of each well was transferred to a 384-well plate.
[2] = target: Dual 3',5'-cyclic-AMP and -GMP phosphodiesterase 11A (Homo sapiens, UniProt Q9HCR9); test: Caliper Mobility-Shift Assay: To a 96-well plate, 20 μL of 10 μM FL-cGMP as the substrate was added; then 1 μL solution of the compound in DMSO or DMSO solution without compound was added; and then 29 μL of 0.28 ng/μL PDE-11 enzyme buffer (100 mM Hepes pH 7.5, 5 mM MgCl2, 0.002% Brij-35) was added. The maximum final concentration of the compound was 10 μM. The plate was incubated at 30° C. for 1 h, and 20 μL of 70 μM EDTA was then added to stop the reaction. 26 μL of solution of each well was transferred to a 384-well plate.
Dual 3',5'-cyclic-AMP and -GMP phosphodiesterase 11A, sequence (Q9HCR9 whole entry): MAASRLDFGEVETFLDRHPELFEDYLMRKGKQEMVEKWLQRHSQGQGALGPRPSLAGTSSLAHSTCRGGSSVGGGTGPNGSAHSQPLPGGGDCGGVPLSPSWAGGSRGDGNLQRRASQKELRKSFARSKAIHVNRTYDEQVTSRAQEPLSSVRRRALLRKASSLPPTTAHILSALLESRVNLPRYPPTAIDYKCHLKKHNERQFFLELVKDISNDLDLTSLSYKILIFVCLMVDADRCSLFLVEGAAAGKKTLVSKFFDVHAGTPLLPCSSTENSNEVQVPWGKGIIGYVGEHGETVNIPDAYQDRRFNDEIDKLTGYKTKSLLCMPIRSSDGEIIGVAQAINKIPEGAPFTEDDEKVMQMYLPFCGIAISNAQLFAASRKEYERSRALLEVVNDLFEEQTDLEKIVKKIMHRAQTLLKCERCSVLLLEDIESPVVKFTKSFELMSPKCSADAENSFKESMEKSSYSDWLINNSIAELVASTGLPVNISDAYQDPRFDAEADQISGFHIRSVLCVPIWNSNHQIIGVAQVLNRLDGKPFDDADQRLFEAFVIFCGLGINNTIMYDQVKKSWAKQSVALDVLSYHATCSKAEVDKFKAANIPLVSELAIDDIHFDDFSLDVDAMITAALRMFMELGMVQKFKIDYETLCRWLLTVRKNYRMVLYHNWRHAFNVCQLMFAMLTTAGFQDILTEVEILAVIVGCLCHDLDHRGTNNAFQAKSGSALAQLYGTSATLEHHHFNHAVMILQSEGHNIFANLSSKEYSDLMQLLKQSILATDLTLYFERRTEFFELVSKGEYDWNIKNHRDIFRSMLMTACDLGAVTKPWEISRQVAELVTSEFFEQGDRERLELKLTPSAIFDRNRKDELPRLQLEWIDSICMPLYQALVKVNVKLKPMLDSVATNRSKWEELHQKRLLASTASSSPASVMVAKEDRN

In the case of COc1ccc(CNc2nc(N3CC4CC4C3)ncc2C(=O)NCc2ccccn2)cc1Cl (configuration not stated), the IC50 [1] is reported as 2.12 nM and the IC50 [2] is reported as > 10000 nM.
